# Reference: US20250161299A1, “ORAL PCLX-001 IN THE TREATMENT OF HUMAN CANCER” (PACYLEX PHARMACEUTICALS INC., priority 2022, published 2025)
# Read-outs that look alike come from different tables or passages of the source.
# Assay: Phase I trial of oral PCLX-001: plasma pharmacokinetics, noncompartmental analysis (Phoenix WinNonlin 8.3)
# Format: in vivo, human
# Conditions: for AUC(0-t): read-out: AUClast; for Tmax: read-out: Tmax
# Excerpt: The clinical trial is entitled “Phase I Trial of PCLX-001 in B-cell Non-Hodgkin Lymphoma and Advanced Solid Malignancies” and registered at clinicaltrials.gov as NCT04836195. It is a phase I dose-escalation study of oral PCLX-001, conducted in a multicenter, non-randomized, open-label, non-controlled design. The study is comprised of two parts: Part A (single-agent dose escalation) and Part B (single-agent expansion cohorts).
# Patients are to receive daily oral PCLX-001 on 28-day cycles, beginning with a starting dose of 20 mg.
# […] After dosing, the blood samples (volumes 3 mL) were serially collected into heparinized tubes from a right forearm butterfly cannula. All blood fluid specimens were frozen and later assayed using a validated UHPLC-MS detection method.
# Noncompartmental pharmacokinetic analysis was performed using Phoenix WinNonlin 8.3 using trapezoidal rule and linear up log down methodology. WinNonlin was allowed to pick optimal terminal phases.
# Nonparametric superposition was performed using Phoenix WinNonlin Nonparametric Superposition to predict steady state data based upon Day 1 data for each patient. It utilized the 8- and 24-hour time points for estimation of terminal phase for the purposes of this exercise. We simulated 20 mg daily oral dosing and simulations were conducted out to steady state. Results are show in FIGS. 5, 6, and 7.
# In the non-compartmental analysis, Phoenix WinNonlin 8.3 trapezoidal rule was used, with linear up log down method. This allowed WinNonlin to pick optimal terminal phase (WinNonlin will accept Rsq adjusted to >0.7). Additional analysis to assess adequate fie included visual inspection of data, and AUCextrap should be <15%.
# Phoenix WinNonlin 8.3 trapezoidal rule. Used linear up log down method. Allowed WinNonlin to pick optimal terminal phase (WinNonlin will accept Rsq adjusted >0.7).
# Other analysis to assess adequate fit. Visual inspection of data. AUCextrap should be <15%.
# [1] = Table 1A, Patient 115-002-001 (Patient 1), Day 1, 20 mg oral daily
# [2] = human, plasma, oral, 20 mg, Table 4, Mean, not on Pantoprazole, 20 mg, N 3, Day 1
# [3] = human, plasma, oral, 20 mg, Table 4, Mean, not on Pantoprazole, 20 mg, N 3, Day 15
# [4] = human, plasma, oral, 40 mg, Table 4, not on Pantoprazole, 40 mg, N 1, Day 1
# [5] = human, plasma, oral, 40 mg, Table 4, not on Pantoprazole, 40 mg, N 1, Day 15
# [6] = human, plasma, oral, 40 mg, Table 5, on Pantoprazole, 40 mg, N 1, Day 1
# [7] = human, plasma, oral, 40 mg, Table 5, on Pantoprazole, 40 mg, N 1, Day 15
# [8] = human, plasma, oral, 70 mg, Table 4, not on Pantoprazole, 70 mg, N 1, Day 1
structure (smiles),measurement,setting,value
"Cc1c(NS(=O)(=O)c2c(Cl)cc(-c3ccnc(N4CCNCC4)c3)cc2Cl)c(CC(C)C)nn1C [PCLX-001, 2,6-dichloro-N-(3-isobutyl-1,5-dimethyl-1H-pyrazol-4-yl)-4-(2-(piperazin-1-yl)pyridin-4-yl)benzene sulfonamide]",systemic accumulation of drug,"Patient 1, by day 15, 20 mg oral daily",without systemic accumulation of drug
same,drug accumulation,"Patient 2, 20 mg oral daily",No significant drug accumulation
same,AUCextrep,[1],15.9%
same,half-life,[1],510 min
same,AUCextrep,"Table 1A, Patient 115-002-001 (Patient 1), Day 15, 20 mg oral daily",21.9%
same,AUCextrep,"Table 1A, Patient 115-002-002 (Patient 2), Day 15, 20 mg oral daily",20.4%
same,AUCextrep,"Table 1A, Patient 115-002-004 (Patient 3), Day 1, 20 mg oral daily",5.41%
same,AUCextrep,"Table 1A, Patient 115-002-004 (Patient 3), Day 15, 20 mg oral daily",11.3%
same,AUCextrap,"Table 6, Patient 115-002-001, Day 1, 20 mg QD oral, Pantoprazole No",15.3%
same,AUCextrap,"Table 6, Patient 115-002-001, Day 15, 20 mg QD oral, Pantoprazole No",23.7%
same,AUCextrap,"Table 6, Patient 115-002-002, Day 15, 20 mg QD oral, Pantoprazole No",17.5%
same,AUCextrap,"Table 6, Patient 115-002-004, Day 1, 20 mg QD oral, Pantoprazole No",5.1%
same,AUCextrap,"Table 6, Patient 115-002-004, Day 15, 20 mg QD oral, Pantoprazole No",10.0%
same,AUCextrap,"Table 7, Patient 115-002-005, Day 1, 40 mg QD oral, Pantoprazole Yes",9.5%
same,AUCextrap,"Table 7, Patient 115-002-005, Day 15, 40 mg QD oral, Pantoprazole Yes",5.3%
same,AUCextrap,"Table 7, Patient 115-009-001, Day 1, 40 mg QD oral, Pantoprazole No",20.1%
same,AUCextrap,"Table 7, Patient 115-009-001, Day 15, 40 mg QD oral, Pantoprazole No",24.9%
same,AUCextrap,"Table 8, Patient 115-024-001, Day 1, 70 mg QD oral, Pantoprazole No",16.8%
same,AUCextrap,"Table 9, Patient 115-002-009, Day 1, 100 mg QD oral, Pantoprazole No",4.4%
same,AUCextrap,"Table 9, Patient 115-002-010, Day 1, 100 mg QD oral, Pantoprazole No",10.9%
same,AUCextrap,"Table 9, Patient 115-002-011, Day 1, 100 mg QD oral, Pantoprazole No",18.4%
same,AUCextrap,"Table 9, Patient 115-002-012, Day 15, 100 mg QD oral, Pantoprazole No",12.2%
same,AUCextrap,"Table 10, Patient 115-002-006, Day 1, Dose 140 mg QD oral, Concomitant Pantoprazole No",5.48%
same,AUCextrap,"Table 10, Patient 115-002-006, Day 15, Dose 140 mg QD oral, Concomitant Pantoprazole No",22.7%
same,AUCextrap,"Table 10, Patient 115-024-005, Day 1, Dose 140 mg QD oral, Concomitant Pantoprazole Yes",12.1%
same,AUCextrap,"Table 10, Patient 115-024-005, Day 15, Dose 140 mg QD oral, Concomitant Pantoprazole Yes",37.9%
same,AUCextrap,"Table 10, Patient 115-024-013, Day 1, Dose 140 mg QD oral, Concomitant Pantoprazole Yes",12.5%
same,AUCextrap,"Table 10, Patient 115-024-013, Day 15, Dose 140 mg QD oral, Concomitant Pantoprazole Yes",39.9%
same,dose proportionality of systemic exposure,dose range of 20 to 140 mg,dose proportional
same,Cmax,"human, plasma, oral, 20 mg, Table 3, human (patient 1), 20 mg/75 kg = 0.27 mg/kg",479 ng/mL
same,half-life,"human, plasma, oral, 20 mg, Table 3, human (patient 1), 20 mg/75 kg = 0.27 mg/kg, read-out: Terminal elimination half-life (converted)",960 min
same,Cmax,"human, plasma, oral, 20 mg, Table 4, Mean (CV), not on Pantoprazole, 20 mg, N 3, Day 1",276 ng/mL
same,half-life,"human, plasma, oral, 20 mg, Table 4, Mean (CV), not on Pantoprazole, 20 mg, N 3, Day 1, read-out: t½ (converted)",416 min
same,Cmax,"human, plasma, oral, 20 mg, Table 4, Mean (CV), not on Pantoprazole, 20 mg, N 3, Day 15",359 ng/mL
same,half-life,"human, plasma, oral, 20 mg, Table 4, Mean (CV), not on Pantoprazole, 20 mg, N 3, Day 15, read-out: t½ (converted)",536 min
same,AUC(0-inf),[2],1960 ng·h/mL
same,AUC(0-t),[2],1600 ng·h/mL
same,AUC(0-inf),[3],2720 ng·h/mL
same,AUC(0-t),[3],2220 ng·h/mL
same,Tmax,"human, plasma, oral, 20 mg, Table 4, median (min, max), not on Pantoprazole, 20 mg, N 3, Day 1",2 h
same,Tmax,"human, plasma, oral, 20 mg, Table 4, median (min, max), not on Pantoprazole, 20 mg, N 3, Day 15",1 h
same,AUC(0-inf),[4],12600 ng·h/mL
same,Cmax,[4],1670 ng/mL
same,AUC(0-t),[4],10100 ng·h/mL
same,Tmax,[4],1 h
same,half-life,"human, plasma, oral, 40 mg, Table 4, not on Pantoprazole, 40 mg, N 1, Day 1, read-out: t½ (converted)",648 min
same,AUC(0-inf),[5],18300 ng·h/mL
same,Cmax,[5],1480 ng/mL
same,AUC(0-t),[5],13700 ng·h/mL
same,Tmax,[5],2 h
same,half-life,"human, plasma, oral, 40 mg, Table 4, not on Pantoprazole, 40 mg, N 1, Day 15, read-out: t½ (converted)",714 min
same,AUC(0-inf),[6],4900 ng·h/mL
same,Cmax,[6],868 ng/mL
same,AUC(0-t),[6],4430 ng·h/mL
same,Tmax,[6],0.5 h
same,half-life,"human, plasma, oral, 40 mg, Table 5, on Pantoprazole, 40 mg, N 1, Day 1, read-out: t½ (converted)",450 min
same,AUC(0-inf),[7],7060 ng·h/mL
same,Cmax,[7],802 ng/mL
same,AUC(0-t),[7],6680 ng·h/mL
same,Tmax,[7],2 h
same,half-life,"human, plasma, oral, 40 mg, Table 5, on Pantoprazole, 40 mg, N 1, Day 15, read-out: t½ (converted)",332 min
same,AUC(0-inf),[8],11300 ng·h/mL
same,Cmax,[8],1430 ng/mL
same,AUC(0-t),[8],9400 ng·h/mL
same,Tmax,[8],1 h
same,half-life,"human, plasma, oral, 70 mg, Table 4, not on Pantoprazole, 70 mg, N 1, Day 1, read-out: t½ (converted)",566 min
